Converted amounts (≈) assume the structure as drawn.
What was measured:
[1] = biological target: T1, Dipeptidase 1 (Sus scrofa) (UniProt P22412); assay: Relative rate of hydrolysis of porcine renal dehydropeptidase-I (DHP-I) to imipenem; assay type: functional
T1 sequence (whole entry): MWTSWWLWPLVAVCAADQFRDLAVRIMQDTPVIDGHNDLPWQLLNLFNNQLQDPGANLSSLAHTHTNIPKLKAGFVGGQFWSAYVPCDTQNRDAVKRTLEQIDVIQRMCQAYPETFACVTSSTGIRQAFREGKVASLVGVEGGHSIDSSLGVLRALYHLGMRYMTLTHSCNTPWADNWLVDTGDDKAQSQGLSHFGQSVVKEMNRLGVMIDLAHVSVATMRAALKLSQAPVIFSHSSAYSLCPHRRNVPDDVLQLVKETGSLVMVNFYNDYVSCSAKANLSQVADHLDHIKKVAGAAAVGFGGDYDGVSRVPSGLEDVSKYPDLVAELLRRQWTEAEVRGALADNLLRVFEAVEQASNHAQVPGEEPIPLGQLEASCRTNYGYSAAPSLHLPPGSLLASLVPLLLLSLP

[2] = system: Enterococcus faecalis; assay: In vitro antibacterial activity against Enterococcus faecalis MB4996 organism; assay type: functional
[3] = system: Escherichia coli; assay: In vitro antibacterial activity against Escherichia coli NIHJ JC2 organism; assay type: functional
[4] = system: Pseudomonas aeruginosa; assay: In vitro antibacterial activity against Pseudomonas aeruginosa MB5002 organism; assay type: functional
[5] = system: Staphylococcus aureus; assay: PBP-2'' affinity was determined by the competition assay with [14C]benzylpenicillin using membrane isolated from MRSA BB6294 strain; assay type: functional
[6] = system: Staphylococcus epidermidis; assay: In vitro antibacterial activity against Staphylococcus epidermidis MB5181a organism; assay type: functional; details: Staphylococcus epidermidis; read-out: MIC
[7] = system: Staphylococcus aureus; assay: Compound was tested in vivo for its anti-methicillin-resistant staphylococcus aureus(MRSA); assay type: functional
[8] = system: Staphylococcus aureus; assay: In vitro antibacterial activity against staphylococcus aureus 209P NIHJ JC1 organism; assay type: functional
[9] = system: Staphylococcus aureus; assay: In vitro antibacterial activity against staphylococcus aureus BB6294 organism (Methicillin-resistant strain); assay type: functional
[10] = system: Staphylococcus aureus; assay: In vitro antibacterial activity against staphylococcus aureus CSa1009 (Methicillin-resistant strain and b beta-Lactamase producing strain); assay type: functional
[11] = Compound was measured for binding rate for human serum at a carbapenem concentration of 10 ug/mL; assay type: ADME; details: read-out: Protein binding (converted)
[12] = biological target: T1, Dipeptidase 1 (Sus scrofa); assay: Compound was measured for DHP-I susceptibility; assay type: functional
[13] = organism: Mus musculus; assay: Compound was measured for binding rate for mouse serum at a carbapenem concentration of 10 ug/mL; assay type: functional
[14] = system: Rattus norvegicus; assay: Epileptogenicity of compound was measured at 100 ug/rat head by the rat intraventricular assay; 0/5; assay type: functional, Cerebral ventricle
[15] = system: Staphylococcus aureus; assay: Compound was tested in vitro for its anti-methicillin-resistant staphylococcus aureus(MRSA); 0.78-3.13; assay type: functional

SMILES | DHP-I susceptibility [1] | MIC [2] | MIC [3] | MIC [4] | IC50 [5] | MIC [6] | ED50 ([7]; Staphylococcus aureus) | MIC [8] | MIC [9] | MIC [10] | fraction unbound at 10 ug/mL [11] | DHP-I susceptibility [12] | PPB [13] | Epileptogenicity [14] | ED50 [7] | MIC [15]
C[C@@H](O)[C@H]1C(=O)N2C(C(=O)O)=C(SCCNC=N)C[C@H]12 [IMIPENEM ANHYDROUS] | 1 | 0.78 µg/mL (≈ 2.61 µM) | 0.1 µg/mL (≈ 0.334 µM) | 1.56 µg/mL (≈ 5.21 µM) | 125 µg/mL (≈ 418 µM) | 100 µg/mL (≈ 334 µM) | > 200 mg/kg | < 0.006 µg/mL | 100 µg/mL (≈ 334 µM) | 100 µg/mL (≈ 334 µM) | – | – | – | – | – | –
C[C@@H](O)[C@H]1C(=O)N2C(C(=O)O)=C(SC(=S)N(C)Cc3cccc4ccccc34)[C@H](C)[C@H]12 | 4.41 | 1.56 µg/mL (≈ 3.42 µM) | 25 µg/mL (≈ 54.8 µM) | > 25 µg/mL | – | 0.39 µg/mL (≈ 0.854 µM) | – | < 0.006 µg/mL | 0.78 µg/mL (≈ 1.71 µM) | 1.56 µg/mL (≈ 3.42 µM) | 0.01 | 4.41 | 99% | 0 | > 50 mg/kg | 1.15 µg/mL (≈ 2.52 µM)
